target: T1, human recombinant FKBP12 (Homo sapiens, UniProt P62942); assay: Test 1: immunophilin FKBP12 rotamase (peptidylprolyl isomerase) inhibiting activity; assay type: biochemical; conditions: 12 nM human recombinant FKBP12, substrate succinyl-Ala-Phe-Pro-Phe-paranitroanilide 48 μM, 4° C.; read-out: PKBP12 rotamase inhibiting activity IC50
T1 construct: purchased Sigma F-5398
Protocol: (Test 1) Test for Measuring Immunophilin FKBP12 Rotamase Activity
The rotamase (peptidylprolyl isomerase) inhibiting activity of each test compound was measured by a known method (Harding et al., Nature 341, 758-760, 1989; Holts et al., J. Am. Chem. Soc. 115, 9925-9938, 1993.) To be more specific, a plastic cuvette was charged with 35 mM HEPES (pH 7.8), 12 nM human recombinant FKBP12 (Sigma, F-5398), 0.4 mg/mL α-chymotrypsin, and a test compound dissolved in DMSO at varying concentrations (DMSO's final concentration was 0.1%.) Subsequently, 24 mM of the substrate peptide, succinyl-Ala-Phe-Pro-Phe-paranitroanilide, as dissolved in trifluoroethanol containing 500 mM of LiCl was added to give a final concentration of 48 μM, whereupon reaction started. The reaction was carried out at 4° C. and the change in absorbance at 390 nm accompanying the liberation of the paranitroaniline product was monitored. A calculated initial rate minus the corresponding value in the absence of the enzyme was used as an index of rotamase activity. The rotamase inhibiting activity of a test compound was expressed in relative values (%) with respect to the control value of rotamase activity in the absence of the compound, and the concentration of the compound at which it was capable of inhibiting rotamase activity by 50% was calculated as an IC50 value from its concentration response curve.

T1 sequence (P62942 whole entry): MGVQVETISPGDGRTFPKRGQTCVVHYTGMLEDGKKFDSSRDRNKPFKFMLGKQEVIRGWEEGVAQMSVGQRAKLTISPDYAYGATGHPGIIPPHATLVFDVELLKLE

Row | Structure (SMILES) | IC50 [µM]
1 | COc1ccc(OCc2nnc([C@@H]3CCCN3C(=O)C(F)(F)C3(O)CC(C)(C)CC(C)(C)C3)o2)cc1OC [Compound 2, (S)-1-(2-(5-((3,4-Dimethoxyphenoxy)methyl)-1,3,4-oxadiazol-2-yl)pyrrolidin-1-yl)-2,2-difluoro-2-(1-hydroxy-3,3,5,5-tetramethylcyclohexyl)ethanone] | 0.062
2 | COc1ccc(OCc2noc([C@@H]3CCCN3C(=O)C(F)(F)C3(O)CC(C)(C)CC(C)(C)C3)n2)cc1OC [Compound 3, (S)-1-(2-(3-((3,4-Dimethoxyphenoxy)methyl)-1,2,4-oxadiazol-5-yl)pyrrolidin-1-yl)-2,2-difluoro-2-(1-hydroxy-3,3,5,5-tetramethylcyclohexyl)ethanone] | 0.5 to 1
3 | COc1ccc(OCc2nnc([C@@H]3CCCN3C(=O)C(F)(F)C3(O)CC(C)(C)CC(C)(C)C3)s2)cc1OC [Compound 4, (S)-1-(2-(5-((3,4-Dimethoxyphenoxy)methyl)-1,3,4-thiadiazol-2-yl)pyrrolidin-1-yl)-2,2-difluoro-2-(1-hydroxy-3,3,5,5-tetramethylcyclohexyl)ethanone] | 0.145
4 | COc1ccc(OCc2nc([C@@H]3CCCN3C(=O)C(F)(F)C3(O)CC(C)(C)CC(C)(C)C3)n[nH]2)cc1OC [Compound 5, (S)-1-(2-(5-((3,4-Dimethoxyphenoxy)methyl)-4H-1,2,4-triazol-3-yl)pyrrolidin-1-yl)-2,2-difluoro-2-(1-hydroxy-3,3,5,5-tetramethylcyclohexyl)ethanone] | 0.119
5 | COc1ccc(OCc2cnc([C@@H]3CCCN3C(=O)C(F)(F)C3(O)CC(C)(C)CC(C)(C)C3)o2)cc1OC [Compound 6, (S)-1-(2-(5-((3,4-Dimethoxyphenoxy)methyl)oxazol-2-yl)pyrrolidin-1-yl)-2,2-difluoro-2-(1-hydroxy-3,3,5,5-tetramethylcyclohexyl)ethanone] | 0.5 to 1
6 | COc1ccc(OCc2cnc([C@@H]3CCCN3C(=O)C(F)(F)C3(O)CC(C)(C)CC(C)(C)C3)s2)cc1OC [Compound 7, (S)-1-(2-(5-((3,4-Dimethoxyphenoxy)methyl)thiazol-2-yl)pyrrolidin-1-yl)-2,2-difluoro-2-(1-hydroxy-3,3,5,5-tetramethylcyclohexyl)ethanone] | 0.5 to 1
7 | COc1ccc(OCc2nc([C@@H]3CCCN3C(=O)C(F)(F)C3(O)CC(C)(C)CC(C)(C)C3)nn2C)cc1OC [Compound 8, (S)-1-(2-(5-((3,4-Dimethoxyphenoxy)methyl)-1-methyl-1H-1,2,4-triazol-3-yl)pyrrolidin-1-yl)-2,2-difluoro-2-(1-hydroxy-3,3,5,5-tetramethylcyclohexyl)ethanone] | 0.189
8 | COc1ccc(OCc2cc([C@@H]3CCCN3C(=O)C(F)(F)C3(O)CC(C)(C)CC(C)(C)C3)nn2C)cc1OC [Compound 9, (S)-1-(2-(5-((3,4-Dimethoxyphenoxy)methyl)-1-methyl-1H-pyrazol-3-yl)pyrrolidin-1-yl)-2,2-difluoro-2-(1-hydroxy-3,3,5,5-tetramethylcyclohexyl)ethanone] | 0.5 to 1
9 | COc1ccc(OCc2cc([C@@H]3CCCN3C(=O)C(F)(F)C3(O)CC(C)(C)CC(C)(C)C3)on2)cc1OC [Compound 10, (S)-1-(2-(3-((3,4-Dimethoxyphenoxy)methyl)isoxazol-5-yl)pyrrolidin-1-yl)-2,2-difluoro-2-(1-hydroxy-3,3,5,5-tetramethylcyclohexyl)ethanone] | 0.5 to 1
10 | COc1ccc(OCc2cc([C@@H]3CCCN3C(=O)C(F)(F)C3(O)CC(C)(C)CC(C)(C)C3)n[nH]2)cc1OC [Compound 11, (S)-1-(2-(5-((3,4-Dimethoxyphenoxy)methyl)-1H-pyrazol-3-yl)pyrrolidin-1-yl)-2,2-difluoro-2-(1-hydroxy-3,3,5,5-tetramethylcyclohexyl)ethanone] | 0.235
11 | COc1ccc(CCc2nnc([C@@H]3CCCN3C(=O)C(F)(F)C3(O)CC(C)(C)CC(C)(C)C3)o2)cc1OC [Compound 12] | 0.27
12 | COc1ccc(-c2nnc([C@@H]3CCCN3C(=O)C(F)(F)C3(O)CC(C)(C)CC(C)(C)C3)o2)cc1OC [Compound 13] | 0.434

Source: US20130345419A1, “AZOLE DERIVATIVE” (TAISHO PHARMACEUTICAL CO., LTD., priority 2011, published 2013)
